Data reported in PubChem BioAssay (NCI).
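Dose response: 5 concentrations. Exposure: 48 h. Format: 96-well plates. Endpoint: linear interpolation; highest concentration if not reached. GI50 is the concentration that inhibits growth by half. At the TGI there is no net growth.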 Where a SMILES comes first, the peptide text is derived from it.

Assays:
Test in all cases: NCI tumour cell line growth inhibition, 48 h
T-47D breast = test system: T-47D breast
MDA-N = test system: MDA-N
DMS 114 small cell lung = test system: DMS 114 small cell lung
RXF-631 renal = test system: RXF-631 renal
SNB-78 CNS = test system: SNB-78 CNS
HOP-18 NSCLC = test system: HOP-18 NSCLC
DMS 273 small cell lung = test system: DMS 273 small cell lung
LXFL 529 NSCLC = test system: LXFL 529 NSCLC
XF 498 CNS = test system: XF 498 CNS

| SMILES | GI50 (T-47D breast) [µM] | TGI (T-47D breast) [µM] | TGI (MDA-N) [µM] | TGI (DMS 114 small cell lung) [µM] | TGI (RXF-631 renal) [µM] | TGI (SNB-78 CNS) [µM] | TGI (HOP-18 NSCLC) [µM] | TGI (DMS 273 small cell lung) [µM] | TGI (LXFL 529 NSCLC) [µM] | TGI (XF 498 CNS) [µM] | GI50 (MDA-N) [µM] |
| --- | --- | --- | --- | --- | --- | --- | --- | --- | --- | --- | --- |
| CCOC(=O)c1c(C)nc2ccc(Cl)cc2c1-c1ccccc1 | 12.9 | 47.8 |  |  |  |  |  |  |  |  |  |
| C=C1C(=O)O[C@@H]2C(=O)[C@@H](C)[C@@H]3C=CC(=O)[C@@]3(C)[C@@H](OC(=O)/C(C)=C\C)[C@H]12 |  | 1.68 | 2.99 |  |  |  |  |  |  |  |  |
| CCN(CC)CCOc1ccc(/C(=C(\C)Cc2ccc(OC)cc2)c2ccc(OC(=O)NCc3ccccc3)cc2)cc1 | 1.2 | 4.11 |  |  |  |  |  |  |  |  |  |
| N=C1N(c2ccccc2)C(=O)C23CCCC2C13N1CCOCC1 (centres undefined) |  |  |  | > 100 | > 100 | > 100 | > 100 | > 100 | > 100 |  |  |
| CC#CS(=O)(=O)c1ccccc1 |  | 6.22 |  |  |  |  |  |  |  |  |  |
| COc1cc(-c2cc(=O)c3ccccc3o2)ccc1N |  |  |  | > 100 |  | > 100 | > 100 | > 100 | > 100 | > 100 |  |
| NC(=O)N/N=C(\C(=O)C(=O)Nc1ccc(Cl)c(C(F)(F)F)c1)c1nc2ccc(C(=O)c3ccccc3)cc2[nH]c1=O |  |  |  | > 100 |  | > 100 | > 100 | > 100 |  | 64.1 |  |
| COc1ccc(/C=C2\CN(Cc3cn(CCCNc4ccnc5cc(Cl)ccc45)nn3)C/C(=C\c3ccc(OC)c(OC)c3)C2=O)cc1OC | 2.42 | 9.42 |  |  |  |  |  |  |  |  |  |
| N#CC(=S)Nc1ccc(Cl)c(Cl)c1 |  | > 74.8 | 88.3 |  |  |  |  |  |  |  |  |
| CC(=O)NC(CCCCNC(=O)N(CCCl)N=O)C(=O)NCc1ccccc1 (centres undefined) |  |  |  | > 100 | > 100 |  | > 100 | > 100 | > 100 | > 100 |  |
| O=C(O)C1NCCc2c1[nH]c1ccccc21 (centres undefined) |  | > 10 | > 10 | > 100 | > 100 | > 100 | > 100 | > 100 | > 100 |  |  |
| O=C(Nc1nccs1)c1cc2c(cc1Cl)Sc1nccn1S2(=O)=O | 23.4 | 64.5 | 33.4 |  |  |  |  |  |  |  | 17.9 |
| CN1CCC[C@@H]1CCO[C@](C)(c1ccccc1)c1ccc(Cl)cc1 | 3.29 | 16.4 |  |  |  |  |  |  |  |  |  |
| O=C1N=C(c2ccccc2)OC1C(=O)c1ccccc1 (centres undefined) |  | > 100 | > 100 |  |  |  |  |  |  |  |  |
| O=C(/C=C\c1cccc2ccccc12)c1cccs1 |  |  |  | 14 |  | 34.5 | 21.8 | 17.9 | 22.9 |  |  |
| ClC1CCC2OOC1O2 (centres undefined) |  |  |  | > 100 |  | > 100 |  | > 100 |  |  |  |
| COC(=O)C(=O)C(C(=O)C(=O)Nc1ccc(Cl)cc1C)c1nc2ccc(C(=O)c3ccccc3)cc2[nH]c1=O (centres undefined) |  |  |  | > 100 | > 100 | > 100 | > 100 | > 100 | > 100 |  |  |

| SMILES | GI50 (T-47D breast) [µM] | TGI (T-47D breast) [µM] | TGI (MDA-N) [µM] | TGI (DMS 114 small cell lung) [µM] | TGI (RXF-631 renal) [µM] | TGI (SNB-78 CNS) [µM] | TGI (HOP-18 NSCLC) [µM] | TGI (DMS 273 small cell lung) [µM] | TGI (LXFL 529 NSCLC) [µM] | TGI (XF 498 CNS) [µM] | GI50 (MDA-N) [µM] |
| --- | --- | --- | --- | --- | --- | --- | --- | --- | --- | --- | --- |
| ClCc1ccc(-c2ccc(Cn3cnc4c(Cl)nc(Cl)nc43)cc2)cc1 | 1.9 | 4.64 |  |  |  |  |  |  |  |  |  |
| O=C(Nc1ccccc1)Nc1cccc(-n2cc(-c3ccncc3)c(-c3ccc(O)c(Cl)c3)n2)c1 | 4.34 | 25.8 |  |  |  |  |  |  |  |  |  |
| C/C(CC(=O)NNc1ccc([N+](=O)[O-])cc1)=N\Nc1ccc([N+](=O)[O-])cc1 | 3.71 | > 100 |  |  |  |  |  |  |  |  |  |
| COC(=O)C(C(=O)C(=O)Nc1ccccc1C(C)=O)c1nc2ccc(Cl)cc2[nH]c1=O (centres undefined) |  |  |  | > 100 | > 100 | > 100 | > 100 |  | > 100 |  |  |
| O=C(O)c1ccc(O)c(N=Nc2cc(S(=O)(=O)O)c3ccccc3c2O)c1 |  |  |  | > 100 | > 100 | > 100 |  | > 100 |  |  |  |
| COC(=O)C(C(=O)C(=O)NC1=C(Cl)C(=O)c2ccccc2C1=O)c1csc(-n2nc(-c3ccccc3)cc2-c2ccccc2)n1 (centres undefined) |  |  |  | > 100 | > 100 | > 100 | > 100 | > 100 | > 100 | > 100 |  |
| Cc1ccc([N+](=O)[O-])cc1NC(=O)C(=O)Cc1occc(=O)c1O |  |  |  | > 100 |  |  | > 100 |  |  | > 100 |  |
| C[C@@H](CO)OCOCc1ccccc1 |  |  |  | > 100 |  | > 100 |  | > 100 | > 100 | > 100 |  |
| COC(=O)/C(C#N)=C1\CCC(O)N1C (centres undefined) |  |  |  | > 100 |  | > 100 | > 100 |  | > 100 | > 100 |  |
| CC1(C)OC(C(N)=O)=C(C(N)=O)O1 |  |  |  | > 100 |  |  | > 100 | > 100 | > 100 | > 100 |  |
| Nc1ncnc(NC2C=C(CO)C(O)C2O)c1[N+](=O)[O-] (centres undefined) |  |  |  | > 100 | > 100 | > 100 | > 100 | > 100 | > 100 |  |  |
| COC(=O)C1=CN=C(C(=O)OC)NN1 |  |  |  | > 100 | > 100 |  | > 100 |  | > 100 | > 100 |  |
| Cc1c(C(=O)CC(=O)C(=O)Nc2ccc(Cl)c(Cl)c2)[n+](=O)c2ccccc2n1[O-] |  |  |  | 34.3 | 60.3 | > 100 |  | 49.9 | 32.4 |  |  |
| COc1ccc(C(c2ccc(C(C)C)cc(=O)c2O)c2ccc3cccnc3c2O)cc1 (centres undefined) |  |  |  | 0.645 |  | 23.2 |  | 2.08 | 15.7 | 16.4 |  |
| CC(C)CC(NC(=O)C(CC(C)C)NC(=O)C(Cc1cnc[nH]1)NC(=O)C(C)NC(=O)C(NC(=O)C(C)NC(=O)C(Cc1c[nH]c2ccccc12)NC(=O)C(CCC(=O)O)NC(=O)C(N)Cc1ccccc1)C(C)C)C(N)=O (centres undefined) (H-FEWAVAHLL-NH2; configuration not given here) |  | > 12.5 | > 12.5 | > 100 | > 100 | > 100 | > 100 | > 100 | > 100 | > 100 |  |
| CC(C)NCC(O)COC(=O)c1cccs1 (centres undefined) |  |  |  |  | > 100 | > 100 |  | > 100 | > 100 | > 100 |  |
